# In patent publication US8648117B2, “Methods and compositions for treating cancer metastasis” (Golden Biotechnology Corporation, priority 2012, dated 2014):
# How the values were obtained:
# [1] = test system: MDA-MB-231SA-GFP6 human breast cancer cells; assay: Breast cancer bone metastasis model (intracardiac inoculation, 25-day study, preventive setting); format: in vivo
# From the text: The objective of this study was to test the efficacy of three different doses of the exemplary compound 1 (Antroquinonol) from Example 1 on breast cancer bone metastases in female athymic nude mice in a 25-day study in preventive setting. The following 5 experimental groups were included in the study:
# The vehicle was corn oil. All groups included 15 mice that are 5 weeks of age at the beginning of the study. Based on the body weights the animals were randomized to five groups. On day 0, the animals were given intracardiac inoculation of human breast cancer cells. Body weights were determined twice a week. At sacrifice, the osteolytic lesions and whole body tumor burden were quantified by x-ray and fluorescence imaging, respectively. The test compound and vehicle were administered by oral gavage twice a day. Blood samples for analysing TRACP 5b were collected at days 0, 17 and 24. The animals were sacrificed at day 25, or earlier if they became moribund. Tissue samples were collected for histology and embedded in paraffin from left and right tibia and femur for possible future histomorphometric analyses. Gross necropsy was performed to all animals at the end of the study, and all macroscopic signs were recorded.
# (§1) Test compound 1 (99%, 1005 mg/ml) was obtained in liquid form. Three 50× stock solutions were prepared in corn oil (75 mg/ml, 150 mg/ml and 225 mg/ml) and stored them in dark at +4° C. The dosing solutions of 1.5, 3.0 and 4.5 mg/ml were prepared from the stock solutions by diluting the stock solutions in corn oil 1:50. The dosing solutions were prepared once a week and stored in dark at +4° C. The dosing volume was 10 ml/kg. The test compound was administered by oral gavage twice a day with dosing intervals of 10+14 hours. The dosings were performed at the same time every day.
# (§2) Zoledronic acid was used as a reference compound. 100 μl of Zometa® (Novartis Pharma GmbH, Nürnberg, Germany) 4 mg/5 ml infusion concentrate was diluted in 3.9 ml of sterile saline (0.9% NaCl) to obtain the administration concentration of 0.02 mg/ml. This solution was prepared once during the study and stored at +4° C. The dosing volume was 5 ml/kg, resulting in the dose of 0.1 mg/kg. The reference compound was administered SC twice in the study: at days 1 and 14.
# Female athymic nude mice (Hsd: Athymic nude-nu) were obtained from Harlan Laboratories B.V. (Horst, The Netherlands). MDA-MB-231SA-GFP6 human breast cancer cells were received originally from Prof. Theresa Guise (Indiana University, Indianapolis, Ind., USA) and transfected with pTurboGFP-N vector (Evrogen JSC, Moscow, Russia).
# This experiment utilized an animal model that closely resembles the characteristics of breast cancer metastatic disease or condition in humans. This model can be effectively used for testing the effects of cancer drug candidates on the metastasis of breast cancer cells to bone. In this model, human breast cancer cells are inoculated into the left cardiac ventricle of 5 weeks old female athymic nude mice. This mouse strain is immunodeficient, allowing rapid spreading of the human cancer cells. Within two weeks after the inoculation, the animals develop osteolytic bone metastases that can be visualized by X-ray radiography. In addition, soft tissue metastases are observed in approximately 40% of the animals, especially in adrenal glands. At 3 weeks, the bone metastases are clearly visible in X-ray radiographs and the animals have developed cachexia and lost weight substantially. The animals are sacrificed typically at 3-4 weeks after inoculation, and their hindlegs are collected for further histomorphometric analysis.
# Female Athymic nude mice (Hsd: Athymic nude-nu, obtained from Harlan, The Netherlands) were used for this study. The age of the animals was 5 weeks, and their body weights were approximately 16-22 g at the beginning of the study. The mice were specific pathogen free (SPF) and isolator-reared animals. […]
# [2] = test system: PC-3 human prostate cancer cells; assay: Prostate cancer bone metastasis model (intratibial inoculation, 5-week study, preventive setting); format: in vivo, male athymic nude mice; parameters: Fractures / Osteoblastic lesions: unit not given here; settings: for Significance (Fractures) / Significance (Osteoblastic lesions): vs control; for Fractures / Osteoblastic lesions: x-ray, qualitative (yes or no)
# From the text: The objective of this study was to test the efficacy of three different doses of the test compound 1 on prostate cancer bone metastases in male athymic nude mice in a 5-week study in preventive setting. The following 5 experimental groups were included in the study:
# The vehicle was corn oil. All groups included 15 mice that were 7 weeks of age at the beginning of the study. Based on the body weights the animals were randomized to five groups. On day 0, the animals were given an intratibial inoculation of human prostate cancer cells. Body weights were determined twice a week. The development of osteoblastic and osteolytic lesions were followed by x-ray. The test compound and vehicle were administered by oral gavage twice a day. The animals were sacrificed at day 35. Tissue samples were collected for histology and embedded in paraffin from left and right tibia and femur for possible future histomorphometric analyses. Gross necropsy was performed to all animals at the end of the study, and all macroscopic signs were recorded.
# as §1, with “compound 1 (99.85%, specific density: 1.005) was obtained” for “compound 1 (99%, 1005 mg/ml) was obtained”, “dosings were started at day 1 and performed at” for “dosings were performed at”
# as §2, with “[…]” for “100 μl”
# Male athymic nude mice (Hsd: Athymic nude-nu, obtained from Harlan, The Netherlands) and PC-3 human prostate cancer cells (ATCC) were used for this study.
# In this model, human prostate cancer cells are inoculated into the left proximal tibia of 5-7 week old male athymic nude mice. This mouse strain is immunodeficient, allowing rapid spreading of the human cancer cells. The bone lesions are mixed, being mainly osteolytic but also containing an osteoblastic component. Within four weeks after the inoculation part of the animals have already developed some bone lesions, that can be visualized by X-ray radiography. At 7 weeks, the bone metastases are clearly visible. The animals are sacrificed at 7-8 weeks after inoculation, and their bones are collected for further histomorphometric analysis.
# Male athymic nude mice (Hsd: Athymic nude-nu, obtained from Harlan, The Netherlands) were used for this study. The age of the animals was 7 weeks, and their body weights were approximately 18-25 g at the beginning of the study. The mice were specific pathogen free (SPF) and isolator-reared animals. Correct age and good clinical health were qualifications for the study. The minimum quarantine and acclimatization period for the mice was 7 days. Allocation to groups was performed by randomization procedure based on body weight. The animals were marked with tail and ear marks. The mice were housed in Scantainer®, 5 mice per cage. In case of fighting, some of the animals had to be isolated. For intratibial inoculations the mice were anesthetized with i.p. injections of Xylazin (5-6 mg/kg) and Ketamine (92-109 mg/kg). For x-ray imaging the mice were anesthetized with inhalation of isoflurane. […]
# [3] = Day 28, 0.1 mg/kg sc days 1 and 14
# [4] = Sacrifice, 0.1 mg/kg sc days 1 and 14
structure (smiles),measurement,setting,value
"COC1=C(OC)C(O)C(C/C=C(\C)CC/C=C(\C)CCC=C(C)C)C(C)C1=O (stereo not drawn) [Compound 1, 4-hydroxy-2,3-dimethoxy-6-methyl-5-(3,7,11-trimethyldodeca-2,6,10-trienyl)cyclohex-2-enone]",Cachectic %,[1]; 30 mg/kg/d po,21.4%
same,Paraplegic %,[1]; 30 mg/kg/d po,57.1%
same,Cachectic %,[1]; 60 mg/kg/d po,16.7%
same,Paraplegic %,[1]; 60 mg/kg/d po,8.3%
same,Cachectic %,[1]; 90 mg/kg/d po,20%
same,Paraplegic %,[1]; 90 mg/kg/d po,20.0%
same,intraosseous tumor area,[1]; higher doses (60 and 90 mg/kg/d),no effect
same,body weight at sacrifice,"[1]; mouse, in vivo, 90 mg/kg/day",increased
same,maximum weight obtained during the study,"[1]; mouse, in vivo, 90 mg/kg/day",increased
same,Significance (Fractures),"[2]; Day 28, 30 mg/kg/d po",* (One asterisk (*) indicates a statistical significance with p-value<0.05)
same,Significance (Fractures),"[2]; Day 28, 60 mg/kg/d po",* (One asterisk (*) indicates a statistical significance with p-value<0.05)
same,Fractures,"[2]; Day 28, 30 mg/kg/d po",0.0
same,Osteoblastic lesions,"[2]; Day 28, 30 mg/kg/d po",0.0
same,Fractures,"[2]; Day 28, 60 mg/kg/d po",0.0
same,Osteoblastic lesions,"[2]; Day 28, 60 mg/kg/d po",0.0
same,Fractures,"[2]; Day 28, 90 mg/kg/d po",36.4
same,Osteoblastic lesions,"[2]; Day 28, 90 mg/kg/d po",9.1
same,Significance (Fractures),"[2]; Sacrifice, 30 mg/kg/d po",* (One asterisk (*) indicates a statistical significance with p-value<0.05)
same,Significance (Fractures),"[2]; Sacrifice, 60 mg/kg/d po",* (One asterisk (*) indicates a statistical significance with p-value<0.05)
same,Significance (Osteoblastic lesions),"[2]; Sacrifice, 60 mg/kg/d po",* (One asterisk (*) indicates a statistical significance with p-value<0.05)
same,Fractures,"[2]; Sacrifice, 30 mg/kg/d po",21.4
same,Osteoblastic lesions,"[2]; Sacrifice, 30 mg/kg/d po",35.7
same,Fractures,"[2]; Sacrifice, 60 mg/kg/d po",21.4
same,Osteoblastic lesions,"[2]; Sacrifice, 60 mg/kg/d po",21.4
same,Fractures,"[2]; Sacrifice, 90 mg/kg/d po",36.4
same,Osteoblastic lesions,"[2]; Sacrifice, 90 mg/kg/d po",45.5
same,osteoclast number at tumor-bone interface,[2]; all doses,no effect
same,total tumor area,[2]; dose 60 mg/kg/d,no effect
same,maximum body weight obtained,"[2]; mouse, in vivo, 60 mg/kg/day",increased
"O=P(O)(O)C(O)(Cn1ccnc1)P(=O)(O)O [Zoledronic acid, reference compound]",Cachectic %,[1]; 0.1 mg/kg sc days 1 and 14,11.1%
same,Paraplegic %,[1]; 0.1 mg/kg sc days 1 and 14,22.2%
same,body weight,[1]; 0.1 mg/kg sc days 1 and 14,no effect
same,intraosseous tumor area,[1]; 0.1 mg/kg sc days 1 and 14,no effect
same,whole body tumor burden,[1]; 0.1 mg/kg sc days 1 and 14,no effect
same,body weight,[2]; 0.1 mg/kg sc days 1 and 14,no effect
same,Significance (Fractures),[2]; [3],* (One asterisk (*) indicates a statistical significance with p-value<0.05)
same,Fractures,[2]; [3],0.0
same,Osteoblastic lesions,[2]; [3],0.0
same,Significance (Fractures),[2]; [4],*** (three asterisks (***) a statistical significance with p-value<0.001)
same,Significance (Osteoblastic lesions),[2]; [4],*** (three asterisks (***) a statistical significance with p-value<0.001)
same,Fractures,[2]; [4],0.0
same,Osteoblastic lesions,[2]; [4],0.0
